Results as given in ChEMBL document CHEMBL5113453, “Design, synthesis, and biological evaluation of a new series of pyrazole derivatives: Discovery of potent and selective JNK3 kinase inhibitors” (Bioorg Med Chem, 2022).

Key:
CCRF-CEM = assay: Antiproliferative activity against human CCRF-CEM cells measured after 48 hrs by SRB assay; format: functional, cell-based
RPMI-8226 [1] = assay: Antiproliferative activity against human RPMI-8226 cells measured after 48 hrs by SRB assay; format: functional, cell-based
HOP-92 = assay: Antiproliferative activity against human HOP-92 cells measured after 48 hrs by SRB assay; format: functional, cell-based
NCI-H226 = assay: Antiproliferative activity against human NCI-H226 cells measured after 48 hrs by SRB assay; format: functional, cell-based
NCI-H460 = assay: Antiproliferative activity against human NCI-H460 cells measured after 48 hrs by SRB assay; format: functional, cell-based
NCI-H522 = assay: Antiproliferative activity against human NCI-H522 cells measured after 48 hrs by SRB assay; format: functional, cell-based
COLO 205 = assay: Antiproliferative activity against human COLO 205 cells measured after 48 hrs by SRB assay; format: functional, cell-based
KM12 = assay: Antiproliferative activity against human KM12 cells measured after 48 hrs by SRB assay; format: functional, cell-based
U-251 = assay: Antiproliferative activity against human U-251 cells measured after 48 hrs by SRB assay; format: functional, cell-based
M14 = assay: Antiproliferative activity against human M14 cells measured after 48 hrs by SRB assay; format: functional, cell-based
MDA-MB-435 = assay: Antiproliferative activity against human MDA-MB-435 cells measured after 48 hrs by SRB assay; format: functional, cell-based
IGROV-1 = assay: Antiproliferative activity against human IGROV-1 cells measured after 48 hrs by SRB assay; format: functional, cell-based
OVCAR-3 = assay: Antiproliferative activity against human OVCAR-3 cells measured after 48 hrs by SRB assay; format: functional, cell-based
OVCAR-4 = assay: Antiproliferative activity against human OVCAR-4 cells measured after 48 hrs by SRB assay; format: functional, cell-based
NCI/ADR-RES = assay: Antiproliferative activity against human NCI-ADR-RES cells measured after 48 hrs by SRB assay; format: functional, cell-based
786-0 = assay: Antiproliferative activity against human 786-0 cells measured after 48 hrs by SRB assay; format: functional, cell-based
A498 = assay: Antiproliferative activity against human A498 cells measured after 48 hrs by SRB assay; format: functional, cell-based
CAKI-1 = assay: Antiproliferative activity against human CAKI-1 cells measured after 48 hrs by SRB assay; format: functional, cell-based
PC-3 = assay: Antiproliferative activity against human PC-3 cells measured after 48 hrs by SRB assay; format: functional, cell-based
MCF7 = assay: Antiproliferative activity against human MCF7 cells measured after 48 hrs by SRB assay; format: functional, cell-based
MDA-MB-231 = assay: Antiproliferative activity against human MDA-MB-231 cells measured after 48 hrs by SRB assay; format: functional, cell-based
Hs-578T = assay: Antiproliferative activity against human Hs-578T cells measured after 48 hrs by SRB assay; format: functional, cell-based
T47D = assay: Antiproliferative activity against human T47D cells measured after 48 hrs by SRB assay; format: functional, cell-based
RPMI-8226 [2] = assay: Induction of apoptosis in human RPMI-8226 cells assessed as fold increase in caspase-3/7 activity at 5.47 uM; format: functional
RPMI-8226 [3] = assay: Induction of necrosis in human RPMI-8226 cells assessed as LDH release at 0.87 uM; format: functional
RPMI-8226 [4] = assay: Induction of necrosis in human RPMI-8226 cells assessed as LDH release at 5.47 uM; format: functional
[5] = target: T1, Vascular endothelial growth factor receptor 3 (Homo sapiens, UniProt P35916); assay: Inhibition of FLT4 (unknown origin) at 1 uM relative to control
T1 sequence (P35916 whole entry): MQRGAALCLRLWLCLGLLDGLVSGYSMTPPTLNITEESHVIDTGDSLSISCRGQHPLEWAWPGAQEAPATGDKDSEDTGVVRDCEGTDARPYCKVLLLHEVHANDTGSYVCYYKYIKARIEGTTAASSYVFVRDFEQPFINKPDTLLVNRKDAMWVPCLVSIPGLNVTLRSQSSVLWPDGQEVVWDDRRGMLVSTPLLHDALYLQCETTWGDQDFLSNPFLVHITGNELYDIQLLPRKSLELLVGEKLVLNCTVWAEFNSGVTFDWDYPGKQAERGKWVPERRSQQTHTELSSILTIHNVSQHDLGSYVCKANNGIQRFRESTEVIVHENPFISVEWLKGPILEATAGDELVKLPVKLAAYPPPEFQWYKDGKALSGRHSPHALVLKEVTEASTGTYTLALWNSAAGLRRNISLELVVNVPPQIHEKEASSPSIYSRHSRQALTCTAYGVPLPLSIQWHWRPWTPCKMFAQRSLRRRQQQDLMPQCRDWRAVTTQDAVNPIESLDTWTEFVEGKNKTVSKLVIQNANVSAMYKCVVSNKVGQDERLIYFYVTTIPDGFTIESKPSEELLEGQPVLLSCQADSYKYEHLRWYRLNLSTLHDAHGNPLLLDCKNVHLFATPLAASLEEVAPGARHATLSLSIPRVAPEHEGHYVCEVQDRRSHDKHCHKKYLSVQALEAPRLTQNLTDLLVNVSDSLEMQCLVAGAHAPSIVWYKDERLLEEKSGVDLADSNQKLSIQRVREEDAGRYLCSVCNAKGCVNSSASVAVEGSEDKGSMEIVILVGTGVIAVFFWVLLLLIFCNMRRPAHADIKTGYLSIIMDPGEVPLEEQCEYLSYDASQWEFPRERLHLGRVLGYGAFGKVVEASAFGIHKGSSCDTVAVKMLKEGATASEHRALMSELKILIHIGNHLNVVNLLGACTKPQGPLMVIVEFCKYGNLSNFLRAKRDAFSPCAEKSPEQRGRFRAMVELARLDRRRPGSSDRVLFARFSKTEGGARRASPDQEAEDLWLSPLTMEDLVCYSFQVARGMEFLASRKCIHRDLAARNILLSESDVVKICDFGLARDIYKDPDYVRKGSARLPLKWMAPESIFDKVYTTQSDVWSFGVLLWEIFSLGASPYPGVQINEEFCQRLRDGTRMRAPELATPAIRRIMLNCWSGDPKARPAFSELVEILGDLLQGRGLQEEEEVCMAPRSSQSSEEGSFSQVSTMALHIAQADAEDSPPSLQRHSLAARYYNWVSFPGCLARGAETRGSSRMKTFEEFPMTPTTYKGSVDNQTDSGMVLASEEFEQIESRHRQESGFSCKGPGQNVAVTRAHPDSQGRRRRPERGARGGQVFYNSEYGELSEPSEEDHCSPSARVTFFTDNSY

[6] = target: T1, Vascular endothelial growth factor receptor 3; assay: Inhibition of FLT4 (unknown origin)
Homo sapiens = species on record: Homo sapiens; assay: Ratio IC50 for inhibition of FLT4 (unknown origin) over IC50 for JNK3 (unknown origin)
[7] = target: T2, Mitogen-activated protein kinase 8 (Homo sapiens, UniProt P45983); assay: Inhibition of JNK1-alpha-1 (unknown origin) at 1 uM relative to control
T2 sequence (P45983 whole entry): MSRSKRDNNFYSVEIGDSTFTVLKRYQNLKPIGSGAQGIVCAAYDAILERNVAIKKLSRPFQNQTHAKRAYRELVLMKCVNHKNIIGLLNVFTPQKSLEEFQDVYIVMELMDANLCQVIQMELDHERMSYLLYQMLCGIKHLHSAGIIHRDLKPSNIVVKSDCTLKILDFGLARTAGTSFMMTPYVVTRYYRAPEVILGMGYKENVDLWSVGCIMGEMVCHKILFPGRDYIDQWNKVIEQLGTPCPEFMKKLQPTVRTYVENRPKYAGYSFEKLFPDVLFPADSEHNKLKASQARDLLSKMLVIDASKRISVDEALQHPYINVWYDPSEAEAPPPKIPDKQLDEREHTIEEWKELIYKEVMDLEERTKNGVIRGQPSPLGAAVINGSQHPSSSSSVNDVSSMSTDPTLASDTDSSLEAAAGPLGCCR

[8] = target: T2, Mitogen-activated protein kinase 8; assay: Inhibition of JNK1-alpha-1 (unknown origin)
[9] = target: Mitogen-activated protein kinase 9 (Homo sapiens, UniProt P45984); assay: Inhibition of JNK2-alpha-2 (unknown origin)
Mitogen-activated protein kinase 9, sequence (P45984 whole entry): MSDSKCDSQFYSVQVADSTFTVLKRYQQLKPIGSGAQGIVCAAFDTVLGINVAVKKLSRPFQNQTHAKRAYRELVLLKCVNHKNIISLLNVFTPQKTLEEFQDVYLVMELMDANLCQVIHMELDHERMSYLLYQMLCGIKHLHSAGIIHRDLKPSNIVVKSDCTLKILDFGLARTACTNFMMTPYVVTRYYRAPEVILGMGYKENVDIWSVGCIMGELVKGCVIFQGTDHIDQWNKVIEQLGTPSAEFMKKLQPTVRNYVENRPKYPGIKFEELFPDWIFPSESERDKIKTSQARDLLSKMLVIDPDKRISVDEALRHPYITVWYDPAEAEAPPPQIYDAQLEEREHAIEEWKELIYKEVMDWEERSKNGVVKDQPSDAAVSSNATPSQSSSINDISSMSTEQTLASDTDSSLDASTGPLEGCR

[10] = system: Serine/threonine-protein kinase B-raf (Homo sapiens), P15056 [V600E]; assay: Inhibition of B-RAF V600E mutant (unknown origin) at 1 uM relative to control
[11] = target: Mitogen-activated protein kinase 10 (Homo sapiens, UniProt P53779); assay: Inhibition of JNK3 in human HEK293 cells transfected with JNK3-NanoLuc fusion vector measured after 1 hr by NanoBRET assay; format: cell-based
Mitogen-activated protein kinase 10, sequence (P53779 whole entry, the tested form may be a part): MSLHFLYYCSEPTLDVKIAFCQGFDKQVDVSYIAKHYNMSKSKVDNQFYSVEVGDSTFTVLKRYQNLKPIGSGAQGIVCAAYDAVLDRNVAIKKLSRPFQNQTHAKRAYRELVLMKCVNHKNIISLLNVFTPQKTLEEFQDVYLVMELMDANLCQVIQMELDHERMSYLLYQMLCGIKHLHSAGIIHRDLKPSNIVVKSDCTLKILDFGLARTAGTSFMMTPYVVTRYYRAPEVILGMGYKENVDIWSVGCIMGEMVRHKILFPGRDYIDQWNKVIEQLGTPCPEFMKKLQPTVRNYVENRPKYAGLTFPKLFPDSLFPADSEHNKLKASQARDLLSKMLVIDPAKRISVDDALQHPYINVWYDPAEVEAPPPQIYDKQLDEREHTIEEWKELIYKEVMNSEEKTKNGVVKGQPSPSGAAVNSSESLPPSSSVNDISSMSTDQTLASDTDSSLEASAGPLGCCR

Cytochrome P450 2D6 = Cytochrome P450 2D6 (Homo sapiens, UniProt P10635); assay: Inhibition of CYP2D6 (unknown origin) using EOMCC as a substrate; format: ADME
Cytochrome P450 2D6, sequence (P10635 whole entry): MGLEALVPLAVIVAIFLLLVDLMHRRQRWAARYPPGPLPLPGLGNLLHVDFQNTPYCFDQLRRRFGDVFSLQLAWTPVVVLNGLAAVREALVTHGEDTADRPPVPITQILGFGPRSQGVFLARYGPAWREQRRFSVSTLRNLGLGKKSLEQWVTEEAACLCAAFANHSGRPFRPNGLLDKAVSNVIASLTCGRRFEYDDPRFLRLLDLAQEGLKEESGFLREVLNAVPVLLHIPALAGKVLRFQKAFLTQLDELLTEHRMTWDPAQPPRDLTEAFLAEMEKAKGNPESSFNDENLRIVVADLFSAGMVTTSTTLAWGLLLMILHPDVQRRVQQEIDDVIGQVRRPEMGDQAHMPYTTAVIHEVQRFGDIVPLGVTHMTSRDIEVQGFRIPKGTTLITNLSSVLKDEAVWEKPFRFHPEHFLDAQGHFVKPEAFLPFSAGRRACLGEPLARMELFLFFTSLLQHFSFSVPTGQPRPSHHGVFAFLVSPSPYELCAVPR

Cytochrome P450 3A4 = Cytochrome P450 3A4 (Homo sapiens, UniProt P08684); assay: Inhibition of CYP3A4 (unknown origin) using BOMCC as a substrate; format: ADME
Cytochrome P450 3A4, sequence (P08684 whole entry): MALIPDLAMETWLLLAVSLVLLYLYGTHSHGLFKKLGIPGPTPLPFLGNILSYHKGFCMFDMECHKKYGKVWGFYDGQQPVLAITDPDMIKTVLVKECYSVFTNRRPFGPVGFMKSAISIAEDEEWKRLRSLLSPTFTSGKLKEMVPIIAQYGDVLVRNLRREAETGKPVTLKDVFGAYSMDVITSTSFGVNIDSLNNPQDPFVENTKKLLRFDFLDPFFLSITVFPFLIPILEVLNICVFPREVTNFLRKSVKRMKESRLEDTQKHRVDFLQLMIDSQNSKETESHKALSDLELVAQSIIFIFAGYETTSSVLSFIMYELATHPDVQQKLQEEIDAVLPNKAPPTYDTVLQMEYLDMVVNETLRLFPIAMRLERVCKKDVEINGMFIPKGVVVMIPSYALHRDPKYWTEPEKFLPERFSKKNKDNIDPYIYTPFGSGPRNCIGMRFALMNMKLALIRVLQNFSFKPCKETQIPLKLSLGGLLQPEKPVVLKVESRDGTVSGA

[12] = target: Voltage-gated inwardly rectifying potassium channel KCNH2 (Homo sapiens, UniProt Q12809); assay: Inhibition of hERG measured by fluorescence polarization assay
Voltage-gated inwardly rectifying potassium channel KCNH2, sequence (Q12809 whole entry): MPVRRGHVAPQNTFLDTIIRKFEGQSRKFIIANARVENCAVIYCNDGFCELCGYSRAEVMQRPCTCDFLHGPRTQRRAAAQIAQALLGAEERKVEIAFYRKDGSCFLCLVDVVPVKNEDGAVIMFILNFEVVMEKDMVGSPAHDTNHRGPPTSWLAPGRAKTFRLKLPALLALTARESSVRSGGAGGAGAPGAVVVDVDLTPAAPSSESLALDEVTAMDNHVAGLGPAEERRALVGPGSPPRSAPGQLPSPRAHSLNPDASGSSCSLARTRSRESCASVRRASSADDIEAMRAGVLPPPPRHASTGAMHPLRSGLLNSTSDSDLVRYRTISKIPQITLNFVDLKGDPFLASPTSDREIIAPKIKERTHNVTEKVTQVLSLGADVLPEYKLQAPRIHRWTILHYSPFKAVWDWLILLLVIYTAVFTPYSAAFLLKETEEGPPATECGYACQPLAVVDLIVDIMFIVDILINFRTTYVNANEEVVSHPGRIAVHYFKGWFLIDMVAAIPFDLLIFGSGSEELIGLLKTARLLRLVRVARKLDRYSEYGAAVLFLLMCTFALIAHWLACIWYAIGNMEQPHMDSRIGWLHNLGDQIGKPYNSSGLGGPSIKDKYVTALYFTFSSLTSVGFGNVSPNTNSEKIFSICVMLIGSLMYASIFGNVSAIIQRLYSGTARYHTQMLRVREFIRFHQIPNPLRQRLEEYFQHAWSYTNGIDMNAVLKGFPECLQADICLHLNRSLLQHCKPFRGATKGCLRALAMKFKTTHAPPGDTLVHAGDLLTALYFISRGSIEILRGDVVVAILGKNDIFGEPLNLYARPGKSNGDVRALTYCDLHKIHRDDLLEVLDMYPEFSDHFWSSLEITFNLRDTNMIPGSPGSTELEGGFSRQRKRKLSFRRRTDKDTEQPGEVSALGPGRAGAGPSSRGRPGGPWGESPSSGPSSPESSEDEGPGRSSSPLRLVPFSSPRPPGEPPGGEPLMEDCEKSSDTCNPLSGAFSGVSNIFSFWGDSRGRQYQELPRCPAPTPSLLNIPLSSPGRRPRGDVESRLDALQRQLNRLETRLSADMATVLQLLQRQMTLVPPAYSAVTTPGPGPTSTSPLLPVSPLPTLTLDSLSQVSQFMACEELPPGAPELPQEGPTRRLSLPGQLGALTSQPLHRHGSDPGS

Which IC50 (CCRF-CEM; 48 h) does the source give for O=C(NCCCNc1cc(-c2cn(-c3ccccc3)nc2-c2cccc(O)c2)ccn1)Nc1ccc(F)cc1 here?
Its IC50 is 1.42 µM.

What about the TGI (CCRF-CEM; time 48 hrs) of the same molecule?
Its TGI is greater than 25 µM.

And the IC50 (RPMI-8226 [1]; RPMI-8226, 48 h)?
Its IC50 is 0.87 µM.

And the TGI (RPMI-8226 [1]; RPMI-8226, time 48 hrs)?
Its TGI is 5.47 µM.

And the IC50 (HOP-92; HOP-92, 48 h)?
Its IC50 is 0.86 µM.

And the TGI (HOP-92; HOP-92, time 48 hrs)?
The TGI was 4.97 µM.

And the IC50 (NCI-H226; NCI-H226, 48 h)?
The IC50 was 3.39 µM.

What about the TGI (NCI-H226; NCI-H226, time 48 hrs) of the same molecule?
Its TGI is 8.91 µM.

And the IC50 (NCI-H460; NCI-H460, 48 h)?
The IC50 was 2.35 µM.

What about the TGI (NCI-H460; NCI-H460, time 48 hrs) of the same molecule?
The TGI was 5.88 µM.

And the IC50 (NCI-H522; NCI-H522, 48 h)?
Its IC50 is 4.03 µM.

And the TGI (NCI-H522; NCI-H522, time 48 hrs)?
The TGI was 9.49 µM.

And the IC50 (COLO 205; COLO 205, 48 h)?
The IC50 was 2.34 µM.

What about the TGI (COLO 205; COLO 205, time 48 hrs) of the same molecule?
Its TGI is 6.28 µM.

What about the IC50 (KM12; KM12, 48 h) of the same molecule?
Its IC50 is 2.61 µM.

And the TGI (KM12; KM12, time 48 hrs)?
The TGI was 5.79 µM.

What about the IC50 (U-251; U-251, 48 h) of the same molecule?
Its IC50 is 2.05 µM.

What about the TGI (U-251; U-251, time 48 hrs) of the same molecule?
Its TGI is 7.55 µM.

What about the IC50 (M14; M14, 48 h) of the same molecule?
Its IC50 is 1.57 µM.

What about the TGI (M14; M14, time 48 hrs) of the same molecule?
The TGI was 5.85 µM.

And the IC50 (MDA-MB-435; MDA-MB-435, 48 h)?
Its IC50 is 1.66 µM.

What about the TGI (MDA-MB-435; MDA-MB-435, time 48 hrs) of the same molecule?
The TGI was 5.05 µM.

And the IC50 (IGROV-1; IGROV-1, 48 h)?
The IC50 was 1.23 µM.

What about the TGI (IGROV-1; IGROV-1, time 48 hrs) of the same molecule?
Its TGI is 5.82 µM.

And the IC50 (OVCAR-3; OVCAR-3, 48 h)?
The IC50 was 2.16 µM.

What about the TGI (OVCAR-3; OVCAR-3, time 48 hrs) of the same molecule?
Its TGI is 8.69 µM.

What about the IC50 (OVCAR-4; OVCAR-4, 48 h) of the same molecule?
Its IC50 is 1.46 µM.

What about the TGI (OVCAR-4; OVCAR-4, time 48 hrs) of the same molecule?
The TGI was 8.21 µM.

What about the IC50 (NCI/ADR-RES; 48 h) of the same molecule?
Its IC50 is 3.51 µM.

What about the TGI (NCI/ADR-RES; time 48 hrs) of the same molecule?
Its TGI is 12.5 µM.

And the IC50 (786-0; 786-0, 48 h)?
Its IC50 is 0.86 µM.

And the TGI (786-0; 786-0, time 48 hrs)?
The TGI was 3.61 µM.

What about the IC50 (A498; A498, 48 h) of the same molecule?
The IC50 was 1.21 µM.

What about the TGI (A498; A498, time 48 hrs) of the same molecule?
Its TGI is 4.96 µM.

And the IC50 (CAKI-1; CAKI-1, 48 h)?
The IC50 was 2.04 µM.

And the TGI (CAKI-1; CAKI-1, time 48 hrs)?
The TGI was 10.7 µM.

And the IC50 (PC-3; PC-3, 48 h)?
The IC50 was 1.33 µM.

What about the TGI (PC-3; PC-3, time 48 hrs) of the same molecule?
Its TGI is 8.92 µM.

And the IC50 (MCF7; MCF7, 48 h)?
The IC50 was 2.32 µM.

And the TGI (MCF7; MCF7, time 48 hrs)?
The TGI was 6.04 µM.

What about the IC50 (MDA-MB-231; MDA-MB-231, 48 h) of the same molecule?
Its IC50 is 2.18 µM.

What about the TGI (MDA-MB-231; MDA-MB-231, time 48 hrs) of the same molecule?
The TGI was 7.78 µM.

And the IC50 (Hs-578T; 48 h)?
The IC50 was 0.98 µM.

And the TGI (Hs-578T; time 48 hrs)?
Its TGI is 5.31 µM.

And the IC50 (T47D; 48 h)?
Its IC50 is 1.89 µM.

What about the TGI (T47D; time 48 hrs) of the same molecule?
The TGI was 11 µM.

What about the “fold change (FC)” value (RPMI-8226 [2]) of the same molecule?
The value was 2.75.

What about the Activity (RPMI-8226 [3]) of the same molecule?
The Activity was 8.5%.

What about the Activity (RPMI-8226 [4]) of the same molecule?
The Activity was 32.4%.

And the inhibition [5]?
The inhibition was 84%.

And the IC50 [6]?
The IC50 was 0.791 µM.

What about the Ratio IC50 (Homo sapiens) of the same molecule?
Its Ratio IC50 is 8.2.

And the inhibition [7]?
Its inhibition is 52%.

What about the IC50 [8] of the same molecule?
Its IC50 is 1 µM.

And the IC50 [9]?
Its IC50 is 1 µM.

And the inhibition [10]?
Its inhibition is 4%.

What about the IC50 [11] of the same molecule?
The IC50 was 3.84 µM.

And the IC50 (Cytochrome P450 2D6)?
The IC50 was 5.54 µM.

And the IC50 (Cytochrome P450 3A4)?
Its IC50 is 18.7 µM.

What about the IC50 [12] of the same molecule?
The IC50 was greater than 50 µM.
